Test results from patent US20250009777A1 (priority 2021, published 2025).
Where two headings read alike, the source gives them in different places.

How the values were obtained:
SARS-CoV-2 Wuhan strain = assay: Antiviral activity against SARS-CoV-2 Wuhan strain, same manner as Example 1; format: cell-based; conditions: for SI: CC50 relative to EC50
[1] = Cytotoxicity (CC50) of structural analogs, Table 4; format: cell-based; conditions: cell line not stated
Description: Measurement of the antiviral activity was conducted in the same manner as Example 1. […] Among these compounds, compounds (A2), (A4) and (A6) had satisfactory differences in the ECso and CCso concentration levels, indicating particular promise as antiviral agents.

DENV2 [2] = assay: Library screening for inhibition of cell death of flavivirus-infected cells; format: cell-based, dengue virus; conditions: compound library screening
Description: Using the compounds of a compound library based on nucleic acid compounds held by the Center for Research and Education on Drug Discovery, Hokkaido University, National University Corporation as test samples, screening was conducted for compounds having an effect in inhibiting cell death of cells infected with a flavivirus. DENV2 was used as the flavivirus.

DENV1 = assay: microbe, parasite or virus in culture; format: cell-based; conditions: Dengue virus, DENV1, BHK-21, 120 h
DENV2 [3] = assay: microbe, parasite or virus in culture; format: cell-based; conditions: Dengue virus, DENV2, BHK-21, 96 h
DENV3 = assay: microbe, parasite or virus in culture; format: cell-based; conditions: Dengue virus, DENV3, BHK-21, 120 h
DENV4 = assay: microbe, parasite or virus in culture; format: cell-based; conditions: Dengue virus, DENV4, BHK-21, 120 h
ZIKV = assay: microbe, parasite or virus in culture; format: cell-based; conditions: Zika virus, BHK-21, 72 h
YFV = assay: microbe, parasite or virus in culture; format: cell-based; conditions: Yellow fever virus, BHK-21, 72 h
JEV = assay: microbe, parasite or virus in culture; format: cell-based; conditions: Japanese encephalitis virus, BHK-21, 72 h
WNV = assay: microbe, parasite or virus in culture; format: cell-based; conditions: West Nile virus, BHK-21, 72 h
CHIKV = assay: microbe, parasite or virus in culture; format: cell-based; conditions: Chikungunya virus, BHK-21
HCoV-229E = assay: microbe, parasite or virus in culture; format: cell-based; conditions: Human coronavirus 229E, MRC5
HCoV-OC43 = assay: microbe, parasite or virus in culture; format: cell-based, Human Coronavirus; conditions: Betacoronavirus 1, OC43, MRC5
[4] = system: coronaviruses, flaviviruses and togaviruses; format: cell-based
[5] = system: AG129 mouse-adapted DENV2; format: in vivo, mice; conditions: for Survival rate: death = bodyweight below 70%; for day post virus infection until which all of the mice survived: death = bodyweight below 80% of initial, FIG. 2A
in vitro [6] = conditions: Syrian hamster
in vitro [7] = conditions: human
[8] = Severe acute respiratory syndrome coronavirus 2

Compound: 2′,3′-O-isopropylidene-5′-O-isobutyryl-2-thiouridine [Compound A6]
- EC50 (SARS-CoV-2 Wuhan strain): 3.93 µM
- SI (SARS-CoV-2 Wuhan strain): 4.9
- CC50 [1]: 19.4 µM

Compound: 2′,3′-O-isopropylidene-5′-O-propynyl-2-thiouridine [Compound A5]
- EC50 (SARS-CoV-2 Wuhan strain): 7.56 µM
- SI (SARS-CoV-2 Wuhan strain): 1.6
- CC50 [1]: 11.9 µM

Compound: O=c1ccn([C@@H]2O[C@H](CO)[C@@H](O)[C@H]2O)c(=S)[nH]1 [2-thiouridine]
- antiviral activity (inhibiting cell death of infected cells) (DENV2 [2]): exhibited antiviral activity
- EC50 (DENV1): 2.4 µM
- EC50 (DENV2 [3]): 1.5 µM
- EC50 (DENV3): 2 µM
- EC50 (DENV4): 1.7 µM
- EC50 (ZIKV): 5 µM
- EC50 (YFV): 2.9 µM
- EC50 (JEV): 4.8 µM
- EC50 (WNV): 5.3 µM
- EC50 (CHIKV): 8.2 µM
- EC50 (HCoV-229E): 0.77 µM
- EC50 (HCoV-OC43): 13 µM
- relative viral RNA level [4]: decreased
- survival rate for the virus-infected mice ([5]; 50 mg/kg (n=8) and 150 mg/kg (n=9) groups compared with vehicle, in words): increased in a dosage-dependent manner
- Survival rate ([5]; 50 mg/kg oral twice per day, n = 8, day 0 post infection): 100%
- Survival rate ([5]; 50 mg/kg oral twice per day, n = 8, day 1 post infection): 100%
- Survival rate ([5]; 50 mg/kg oral twice per day, n = 8, day 2 post infection): 100%
- Survival rate ([5]; 50 mg/kg oral twice per day, n = 8, day 3 post infection): 100%
- Survival rate ([5]; 50 mg/kg oral twice per day, n = 8, day 4 post infection): 100%
- Survival rate ([5]; 50 mg/kg oral twice per day, n = 8, day 5 post infection): 100%
- Survival rate ([5]; 50 mg/kg oral twice per day, n = 8, day 6 post infection): 100%
- Survival rate ([5]; 50 mg/kg oral twice per day, n = 8, day 7 post infection): 100%
- Survival rate ([5]; 50 mg/kg oral twice per day, n = 8, day 8 post infection): 100%
- Survival rate ([5]; 50 mg/kg oral twice per day, n = 8, day 9 post infection): 100%
- Survival rate ([5]; 50 mg/kg oral twice per day, n = 8, day 10 post infection): 100%
- Survival rate ([5]; 50 mg/kg oral twice per day, n = 8, day 11 post infection): 75%
- Survival rate ([5]; 50 mg/kg oral twice per day, n = 8, day 12 post infection): 50%
- Survival rate ([5]; 50 mg/kg oral twice per day, n = 8, day 13 post infection): 37.5%
- Survival rate ([5]; 50 mg/kg oral twice per day, n = 8, day 14 post infection): 37.5%
- Survival rate ([5]; 50 mg/kg oral twice per day, n = 8, day 15 post infection): 0%
- day post virus infection until which all of the mice survived ([5]; 50 mg/kg orally twice per day for 5 days, n=3): 12 days
- Survival rate ([5]; 150 mg/kg oral twice per day, n = 9, day 0 post infection): 100%
- Survival rate ([5]; 150 mg/kg oral twice per day, n = 9, day 1 post infection): 100%
- Survival rate ([5]; 150 mg/kg oral twice per day, n = 9, day 2 post infection): 100%
- Survival rate ([5]; 150 mg/kg oral twice per day, n = 9, day 3 post infection): 100%
- Survival rate ([5]; 150 mg/kg oral twice per day, n = 9, day 4 post infection): 100%
- Survival rate ([5]; 150 mg/kg oral twice per day, n = 9, day 5 post infection): 100%
- Survival rate ([5]; 150 mg/kg oral twice per day, n = 9, day 6 post infection): 100%
- Survival rate ([5]; 150 mg/kg oral twice per day, n = 9, day 7 post infection): 100%
- Survival rate ([5]; 150 mg/kg oral twice per day, n = 9, day 8 post infection): 100%
- Survival rate ([5]; 150 mg/kg oral twice per day, n = 9, day 9 post infection): 100%
- Survival rate ([5]; 150 mg/kg oral twice per day, n = 9, day 10 post infection): 100%
- Survival rate ([5]; 150 mg/kg oral twice per day, n = 9, day 11 post infection): 88.89%
- Survival rate ([5]; 150 mg/kg oral twice per day, n = 9, day 12 post infection): 88.89%
- Survival rate ([5]; 150 mg/kg oral twice per day, n = 9, day 13 post infection): 66.67%
- Survival rate ([5]; 150 mg/kg oral twice per day, n = 9, day 14 post infection): 66.67%
- Survival rate ([5]; 150 mg/kg oral twice per day, n = 9, day 15 post infection): 66.67%
- Survival rate ([5]; 150 mg/kg oral twice per day, n = 9, day 16 post infection): 66.67%
- day post virus infection until which all of the mice survived ([5]; 150 mg/kg orally twice per day for 5 days, n=4): 15 days
- CC50 (in vitro [6]): > 50 µM
- CC50 (in vitro [7]): > 50 µM

Compound: O=c1ccn([C@@H]2O[C@H](CO)[C@@H](O)[C@H]2O)c(=[Se])[nH]1 [Compound A2, 2-selenouridine]
- SI (SARS-CoV-2 Wuhan strain): >2.7
- EC50 (SARS-CoV-2 Wuhan strain; [8]): 7.37 µM
- CC50 [1]: > 20 µM

Compound: CSc1nc(=O)ccn1C1O[C@H](CO)[C@@H](O)[C@H]1O (stereo partly drawn) [Compound A3]
- SI (SARS-CoV-2 Wuhan strain): 1.2
- EC50 (SARS-CoV-2 Wuhan strain; [8]): 4.67 µM
- CC50 [1]: 5.48 µM

Compound: O=c1ccn(C2O[C@H](CO)[C@@H](O)[C@H]2O)c(=NO)[nH]1 (stereo partly drawn) [Compound A4]
- SI (SARS-CoV-2 Wuhan strain): 7.5
- EC50 (SARS-CoV-2 Wuhan strain; [8]): 0.81 µM
- CC50 [1]: 6.04 µM
